Calls of active or inactive are those of the source. The calls are words filed in the database; no cut-off is given here.
Tested on: not listed separately
Assay: Inhibition of PDE3 in guinea pig ventricle
Parameters: species or system Cavia porcellus

SMILES | IC50
COC(=O)C(=Cc1cc(=O)n(C)nc1-c1ccccc1)C(=O)OC | 2000 µM
CCOC(=O)C(=Cc1cc(=O)[nH]nc1-c1ccccc1)C(=O)OCC | 2000 µM
COC(=O)C(=Cc1cc(=O)[nH]nc1-c1ccccc1)C(=O)OC | 2000 µM

Tested on: not listed separately
Assay: (§1) Inhibition of thrombin-induced platelet aggregation in human platelets after 5 mins by turbidimetric method
Format: functional, cell-based

SMILES | IC50
Cn1ncc(C=C(C(=O)OCc2ccccc2)C(=O)OCc2ccccc2)cc1=O | 1.64 µM
COC(=O)C(=Cc1cn[nH]c(=O)c1)C(=O)OC | 40.2 µM
COC(=O)C(=Cc1cnn(Cc2ccccc2)c(=O)c1)C(=O)OC | 4.86 µM
CC(C)OC(=O)C(=Cc1cnn(C)c(=O)c1)C(=O)OC(C)C | 13.3 µM
O=C(OCc1ccccc1)C(=Cc1cnn(Cc2ccccc2)c(=O)c1)C(=O)OCc1ccccc1 | 1.36 µM
Cn1nc(-c2ccccc2)c(C=C(C(=O)OC(C)(C)C)C(=O)OC(C)(C)C)cc1=O | 45 µM
Cn1ncc(C=C(C#N)C#N)cc1=O | 475 µM
O=C(OCc1ccccc1)C(=Cc1cc(=O)[nH]nc1-c1ccccc1)C(=O)OCc1ccccc1 | 1.8 µM
O=C(OCc1ccccc1)C(=Cc1cn[nH]c(=O)c1)C(=O)OCc1ccccc1 | 3.58 µM
CC(C)(C)OC(=O)C(=Cc1cc(=O)[nH]nc1-c1ccccc1)C(=O)OC(C)(C)C | 7.5 µM
CC(C)OC(=O)C(=Cc1cnn(Cc2ccccc2)c(=O)c1)C(=O)OC(C)C | 2.9 µM
O=C(/C=C/c1cnn(Cc2ccccc2)c(=O)c1)c1ccccc1 | 170 µM
CCOC(=O)C(=Cc1cc(=O)n(C)nc1-c1ccccc1)C(=O)OCC | 17 µM
N#C/C=C/c1cnn(Cc2ccccc2)c(=O)c1 | 221 µM
CC(C)(C)OC(=O)C(=Cc1cnn(Cc2ccccc2)c(=O)c1)C(=O)OC(C)(C)C | 6.25 µM
CCOC(=O)C(=Cc1cn[nH]c(=O)c1)C(=O)OCC | 8.7 µM
CC(C)OC(=O)C(=Cc1cc(=O)[nH]nc1-c1ccccc1)C(=O)OC(C)C | 17.5 µM
N#CC(C#N)=Cc1cnn(Cc2ccccc2)c(=O)c1 | 126 µM
O=C(/C=C/c1cc(=O)[nH]nc1-c1ccccc1)c1ccccc1 | 142 µM
COC(=O)C(=Cc1cc(=O)n(C)nc1-c1ccccc1)C(=O)OC | 9.2 µM
Cn1nc(-c2ccccc2)c(C=C(C(=O)OCc2ccccc2)C(=O)OCc2ccccc2)cc1=O | 1.4 µM
O=C1C(CC[S+]([O-])c2ccccc2)C(=O)N(c2ccccc2)N1c1ccccc1 (configuration not stated) [SULFINPYRAZONE] | 509 µM
CCOC(=O)C(=Cc1cnn(C)c(=O)c1)C(=O)OCC | 12.3 µM
CCOC(=O)C(=Cc1cnn(Cc2ccccc2)c(=O)c1)C(=O)OCC | 3.62 µM
COC(=O)C(=Cc1cnn(C)c(=O)c1)C(=O)OC | 15.6 µM
CC(C)OC(=O)C(=Cc1cc(=O)n(C)nc1-c1ccccc1)C(=O)OC(C)C | 4.1 µM
Cc1[nH]c(=O)c(C#N)cc1-c1ccncc1 [MILRINONE] | 4.7 µM
CCOC(=O)C(=Cc1cc(=O)[nH]nc1-c1ccccc1)C(=O)OCC | 20 µM
COC(=O)C(=Cc1cc(=O)[nH]nc1-c1ccccc1)C(=O)OC | 45 µM
Cn1ncc(C=C(C(=O)OC(C)(C)C)C(=O)OC(C)(C)C)cc1=O | 95 µM

Tested on: Platelet
Assay: as §1
Format: functional, cell-based

SMILES | Activity
O=C(OCc1ccccc1)C(=Cc1cnn(Cc2ccccc2)c(=O)c1)C(=O)OCc1ccccc1 | Dose-dependent effect
COCn1nc(-c2ccccc2)c(/C=C/C(=O)OC)cc1=O | inactive
CC(C)OC(=O)C(=Cc1cc(=O)[nH]nc1-c1ccccc1)C(=O)OC(C)C | Dose-dependent effect
COC(=O)C(=Cc1cc(=O)[nH]nc1-c1ccccc1)C(=O)OC | Dose-dependent effect

From ChEMBL document CHEMBL1138338, “Design, synthesis, and structure-activity relationships of a novel series of 5-alkylidenepyridazin-3(2H)-ones with a non-cAMP-based antiplatelet activity” (J Med Chem, 2007)
